US10772840B2 (Charleston Laboratories, Inc., priority 2016, dated 2020)
Where a name gives a salt, the structure may show the parent alone.

Assay: Impurity profile (related substances) by HPLC, initial and after one month at 40° C. (stability study)
Assay type: physicochemical
Conditions: HPLC percent area
Description: The percentages of related substances were measured using an HPLC.
Stock promethazine HCl selectivity solution was prepared by accurately weighing about 2 mg of EP promethazine for peak identification CRS and transferring into 1 mL of diluent (prepared by mixing 750 mL of mobile phase A and 250 mL of acetonitrile), followed by vortexing to dissolve.
Ten capsules were randomly selected and weighed. The contents of the ten capsules were emptied into a 500 mL volumetric flask. 300 mL of diluent was added and the mixture was sonicated in an ice bath for 40 minutes or until completely disintegrated with intermittent swirling. The temperature was equilibrated to room temperature and more diluent was added to volume.
Promethazine HCl impurity sample solution: stock solution sample was filtered through a 0.45 μm PVDF membrane, syringe filter or a 0.45 μm PTFE w/GMF membrane, syringe filter discarding the first 5 mL and collecting approximately 20 mL into an appropriate glass container. Fill an HPLC vial with the filtrate
The RT of the promethazine in the promethazine HCl selectivity solution is between 44.1 and 53.9.
Mobile Phase B: 0.2% TFA in Acetonitrile, which was prepared by mixing well 2.0 ml of trifluoroacetic acid to 1 L of acetonitrile; and Gradient used was as follows in Table 15.
All known and unknown impurities were calculated via percent area as follow:
[formula] Where: • Ru=Peak area of related substance in the sample solution • Rt=Sum of peak area of promethazine or sumatriptan and all related substances areas corresponding to respective peak in sample solution • RRF=Relative Response Factor for related substances
The formulation was examined for its stability after one month at 40° C.

Impurity percentages, all related substances combined (in a capsule stored at 40° C. for 1 month): 0.2% | Impurity percentages, all related substances combined (in a capsule, initial (before storage)): 0.3%
Structure (SMILES): CC(CN1c2ccccc2Sc2ccccc21)N(C)C (centres unmarked) [Promethazine, Promethazine Hydrochloride]
